Patent US12454531B2, “Substituted piperazine derivatives useful as T cell activators” (BRISTOL-MYERS SQUIBB COMPANY, priority 2019, dated 2025)
Read-outs that look alike come from different tables or passages of the source.

Experiments:
Human whole blood pERK = experiment: Assay 11: DGK Human Whole Blood pERK Assay; type: cell-based; settings: anti-CD3 stimulation, pERK positive within CD8 positive population, starting concentration 20 μM, read-out: DGK HWB pERK IC50
Method: Assay 11: DGK Human Whole Blood pERK Assay
Human whole blood ERK phosphorylation assay was performed with human venous whole blood obtained from healthy donors (drawn with Heparin as anti-coagulant). Serial dilutions of compounds (11 points, 3-fold) in DMSO were added to 384 well plates at 20 nL/well using an ECHO 550 acoustic dispenser (Labcyte) to achieve final starting concentration of 20 μM in assay. Heparinized human whole blood was added to the compound plate at 9 μL per well and incubated for one hour at 37° C. in a humidified 95%, air/5% CO2 incubator. After one hour of compound incubation, 1 μL of human anti-CD3 antibody (in-house) in the presence of cross-linking antibody goat anti-mouse IgG (4 μg/mL) was added to the well at 1 μg/mL final concentration for stimulation of pathway and additionally incubated for 15 minutes at 37° C. Stimulation was stopped by adding 90 μL Fix/Lyse buffer (BD 558049). Cells were washed and stained with anti-CD8 PE (BD 555635) antibodies for 60 minutes at room temperature, washed again, and permeabilized on ice using Perm III buffer (BD 558050) for 30 minutes. Cells were then stained with an Alexa Fluor® 647 anti-ERK1/2 Phospho (Thr202/Tyr204) Antibody (Bioleged 675504) for 60 minutes at 1:50 dilution. Samples were washed and resuspended in dPBS containing 1% BSA (dPBS, Gibco 14190136; BSA, Sigma-Aldrich A9205). Samples analyzed using the Intellicyt® iQue Screener PLUS. The pERK activation was quantitated by the percentage of pERK positive population within CD8 positive population.

Human whole blood IFN-γ = experiment: Assay 10: Human Whole Blood IFN-γ Assay; type: cell-based; settings: anti-CD3 and anti-CD28 stimulation, 100% = 3 μM reference compound, read-out: INFg Whole Blood Normalized Agonist EC50
Method: Assay 10: Human Whole Blood IFN-γ Assay
Human venous whole blood (22.5 μL per well), obtained from healthy donors, was pre-treated with compounds for one hour at 37° C. in a humidified 95% air/5% CO2 incubator. The blood was stimulated with 2.5 μL anti-human CD3 and anti-CD28 mAb at a final concentration of 1 μg/mL each for 24 hours at 37° C. IFN-7 in the supernatants was measured using AlphLISA kit (Cat #AL217).

DGKα [1] = target: T1, DGKα (Homo sapiens (Human), UniProt P23743); experiment: Assay 2: In Vitro DGK Inhibition Assays, Method B (DGKα ADPGLO); type: biochemical; settings: 150 μM ATP
Method: (§1) Assay 2: In Vitro DGK Inhibition Assays—Method B
(§2) The DGKα and DGKζ reactions were performed using either extruded liposome (DGKα and DGKζ LIPGLO assays) or detergent/lipid micelle substrate (DGKα and DGKζ assays). The reactions were carried out in 50 mM MOPS pH 7.5, 100 mM NaCl, 10 mM MgCl2, 1 μM CaCl2), and 1 mM DTT (assay buffer). The reactions using a detergent/lipid micelle substrate also contained 50 mM octyl B-D-glucopyranoside. The lipid substrate concentrations were 11 mM PS and 1 mM DAG for the detergent/lipid micelle reactions. The lipid substrate concentrations were 2 mM PS, 0.25 mM DAG, and 2.75 mM PC for the extruded liposome reactions (5 mM total lipid). The reactions were carried out in 150 μM ATP. The enzyme concentrations for the DGKα and DGKζ were nM.
(§3) The compound inhibition studies were carried out as follows: 25 nL droplets of each test compound (top concentration 10 mM with 11 point, 3-fold dilution series for each compound) solubilized in DMSO were transferred to wells of a white 1536 well plate (Corning 3725). A 5 mL enzyme/lipid substrate solution at 2× final reaction concentration was prepared by combining 2.5 mL 4× enzyme solution (20 nM DGKα or DGKζ (prepared as described below) in assay buffer) and 2.5 mL of either 4× liposome or 4× detergent/lipid micelle solution (compositions described below) and incubated at room temperature for 10 minutes. Next, 1 μL 2× enzyme/lipid substrate solution was added to wells containing the test compound and reactions were initiated with the addition of 1 μL 300 uM ATP. The reactions were allowed to proceed for 2 hr, after which 2 μL Glo Reagent (Promega V9101) was added and incubated for 40 minutes. Next, 4 μL Kinase Detection Reagent was added and incubated for 30 minutes. Luminescence was recorded using an EnVision microplate reader. […] The compounds were evaluated at 11 concentrations to determine IC50.
The detergent/lipid micelle was prepared by combining 15 g phosphatidylserine (Avanti 840035P) and 1 g diacylglycerol (8008110) and dissolving into 150 mL chloroform in a 2 L round bottom flask. Chloroform was removed under high vacuum by rotary evaporation. The resulting colorless, tacky oil was resuspended in 400 mL 50 mM MOPS pH 7.5, 100 mM NaCl, 20 mM NaF, 10 mM MgCl2, 1 μM CaCl2), 1 mM DTT, and 200 mM octyl glucoside by vigorous mixing. The lipid/detergent solution was split into 5 mL aliquots and stored at −80° C.
(§4) The lipid composition was 5 mol % DAG (Avanti 8008110), 40 mol % PS (Avanti 840035P), and 55 mol % PC (Avanti 850457) at a total lipid concentration of 7-8 mg/mL for the liposome solution. The PC, DAG, and PS were dissolved in chloroform, combined, and dried in vacuo to a thin film. The lipids were hydrated to 20 mM in 50 mM MOPS pH 7.5, 100 mM NaCl, 5 mM MgCl2, and were freeze-thawed five times. The lipid suspension was extruded through a 100 nm polycarbonate filter 10-12 times. Dynamic light scattering was carried out to confirm liposome size (50-60 nm radius). The liposome preparation was stored at 4° C. for as long as four weeks.
Human MA-hDGKα-(S9-S727)-Ct-TVMV-His-pFBgate and full length human DGK-ζ-transcript variant-2-TVMV-His-pFBgate baculovirus samples were generated using the Bac-to-Bac baculovirus expression system (Invitrogen) according to the manufacturer's protocol (note: MA- in name of DGKα reagents indicates two extra amino acids added prior to Ser-9). The DNA used for expression of the DGK-α(9-727) and DGK-C have SEQ ID NOs: 5 and 3, respectively. […]
Target sequence in this assay (P23743 other isoform, or with tags, fused parts or gaps): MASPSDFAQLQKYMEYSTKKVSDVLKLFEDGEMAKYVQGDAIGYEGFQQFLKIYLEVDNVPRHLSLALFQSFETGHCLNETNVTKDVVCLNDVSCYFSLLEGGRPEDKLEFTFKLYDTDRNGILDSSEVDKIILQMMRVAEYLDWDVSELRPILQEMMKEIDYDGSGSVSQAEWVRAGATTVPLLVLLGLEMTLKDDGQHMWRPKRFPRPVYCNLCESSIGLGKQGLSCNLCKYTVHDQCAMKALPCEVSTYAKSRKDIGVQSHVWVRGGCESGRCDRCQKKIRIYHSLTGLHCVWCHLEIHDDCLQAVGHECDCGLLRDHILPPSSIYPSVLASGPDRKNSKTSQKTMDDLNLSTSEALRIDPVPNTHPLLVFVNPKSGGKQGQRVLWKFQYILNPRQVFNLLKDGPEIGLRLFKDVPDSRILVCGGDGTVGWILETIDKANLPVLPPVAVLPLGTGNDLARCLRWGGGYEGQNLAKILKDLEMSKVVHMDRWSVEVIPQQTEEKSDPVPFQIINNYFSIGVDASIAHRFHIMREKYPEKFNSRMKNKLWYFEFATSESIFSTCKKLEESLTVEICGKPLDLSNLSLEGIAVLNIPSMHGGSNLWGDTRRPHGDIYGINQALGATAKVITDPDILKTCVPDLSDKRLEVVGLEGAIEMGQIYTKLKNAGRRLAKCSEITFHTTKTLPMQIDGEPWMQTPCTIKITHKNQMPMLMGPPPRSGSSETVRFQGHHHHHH

DGKα [2] = target: T1, DGKα; experiment: Assay 1: In Vitro DGK Inhibition Assays, Method A (DGKα LIPGLO, extruded liposome); type: biochemical; settings: extruded liposome substrate, 150 μM ATP
Method: (§5) Assay 1: In Vitro DGK Inhibition Assays—Method A
as §2, with “reactions.” for “reactions (5 mM total lipid).”, “5 nM” for “nM.”
as §3, with “follows: 50” for “follows: 25”, “mL enzyme/substrate” for “mL enzyme/lipid substrate”, “2× enzyme/substrate” for “2× enzyme/lipid substrate”, “for 1” for “for 2”
as §4, with “15.2” for “7-8”, “the 4×” for “the”, “eleven” for “10-12”, “Dynamic light scattering was carried out to confirm liposome size (50-60 nm radius).” left out
(§6) Baculovirus amplification was achieved using infected Sf9 cells at 1:1500 virus/cell ratios, and grown for 65 hours at 27° C. post-transfection.
(§7) The cells were lysed using nitrogen cavitation method with a nitrogen bomb (Parr Instruments), and the lysates were clarified by centrifugation. […] The three steps column chromatography included nickel affinity resin capture (i.e. HisTrap FF crude, GE Healthcare), followed by size exclusion chromatography (i.e. HiLoad 26/600 Superdex 200 prep grade, GE Healthcare for DGK-alpha, and HiPrep 26/600 Sephacryl S 300_HR, GE Healthcare for DGK-zeta). The third step was ion exchange chromatography, and differed for the two isoforms. DGKα was polished using Q-Sepharose anion exchange chromatography (GE Healthcare). DGKζ was polished using SP Sepharose cation exchange chromatography (GE Healthcare). The proteins were delivered at concentrations of ≥2 mg/mL. The formulation buffers were identical for both proteins: 50 mM Hepes, pH 7.2, 500 mM NaCl, 10% v/v glycerol, 1 mM TCEP, and 0.5 mM EDTA.
Target sequence in this assay (P23743 whole entry): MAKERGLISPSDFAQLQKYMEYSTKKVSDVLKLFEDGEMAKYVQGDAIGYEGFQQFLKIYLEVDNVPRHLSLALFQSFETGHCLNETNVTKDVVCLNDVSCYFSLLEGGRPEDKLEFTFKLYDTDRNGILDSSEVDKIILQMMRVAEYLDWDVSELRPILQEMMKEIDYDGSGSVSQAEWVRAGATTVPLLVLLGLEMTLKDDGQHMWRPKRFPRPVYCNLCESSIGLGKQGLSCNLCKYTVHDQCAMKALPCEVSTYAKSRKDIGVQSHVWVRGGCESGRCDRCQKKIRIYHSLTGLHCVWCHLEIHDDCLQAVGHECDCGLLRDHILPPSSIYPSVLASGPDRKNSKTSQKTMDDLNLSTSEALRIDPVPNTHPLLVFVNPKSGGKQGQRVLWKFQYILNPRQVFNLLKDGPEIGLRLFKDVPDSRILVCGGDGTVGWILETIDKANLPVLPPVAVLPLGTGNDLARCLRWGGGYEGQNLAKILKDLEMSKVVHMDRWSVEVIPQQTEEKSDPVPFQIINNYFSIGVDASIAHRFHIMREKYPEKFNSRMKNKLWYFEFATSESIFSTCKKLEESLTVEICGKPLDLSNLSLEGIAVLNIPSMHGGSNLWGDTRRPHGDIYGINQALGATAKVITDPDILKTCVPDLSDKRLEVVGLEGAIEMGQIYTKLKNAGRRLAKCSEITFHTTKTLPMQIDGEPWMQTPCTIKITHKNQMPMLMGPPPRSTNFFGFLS

DGKζ = DGKζ (Homo sapiens (Human), UniProt Q13574); experiment: Assay 1 or 2: In Vitro DGK Inhibition Assays (DGKζ LIPGLO, extruded liposome); type: biochemical; settings: extruded liposome substrate, 150 μM ATP
DGKζ, sequence (Q13574 other isoform, or with tags, fused parts or gaps): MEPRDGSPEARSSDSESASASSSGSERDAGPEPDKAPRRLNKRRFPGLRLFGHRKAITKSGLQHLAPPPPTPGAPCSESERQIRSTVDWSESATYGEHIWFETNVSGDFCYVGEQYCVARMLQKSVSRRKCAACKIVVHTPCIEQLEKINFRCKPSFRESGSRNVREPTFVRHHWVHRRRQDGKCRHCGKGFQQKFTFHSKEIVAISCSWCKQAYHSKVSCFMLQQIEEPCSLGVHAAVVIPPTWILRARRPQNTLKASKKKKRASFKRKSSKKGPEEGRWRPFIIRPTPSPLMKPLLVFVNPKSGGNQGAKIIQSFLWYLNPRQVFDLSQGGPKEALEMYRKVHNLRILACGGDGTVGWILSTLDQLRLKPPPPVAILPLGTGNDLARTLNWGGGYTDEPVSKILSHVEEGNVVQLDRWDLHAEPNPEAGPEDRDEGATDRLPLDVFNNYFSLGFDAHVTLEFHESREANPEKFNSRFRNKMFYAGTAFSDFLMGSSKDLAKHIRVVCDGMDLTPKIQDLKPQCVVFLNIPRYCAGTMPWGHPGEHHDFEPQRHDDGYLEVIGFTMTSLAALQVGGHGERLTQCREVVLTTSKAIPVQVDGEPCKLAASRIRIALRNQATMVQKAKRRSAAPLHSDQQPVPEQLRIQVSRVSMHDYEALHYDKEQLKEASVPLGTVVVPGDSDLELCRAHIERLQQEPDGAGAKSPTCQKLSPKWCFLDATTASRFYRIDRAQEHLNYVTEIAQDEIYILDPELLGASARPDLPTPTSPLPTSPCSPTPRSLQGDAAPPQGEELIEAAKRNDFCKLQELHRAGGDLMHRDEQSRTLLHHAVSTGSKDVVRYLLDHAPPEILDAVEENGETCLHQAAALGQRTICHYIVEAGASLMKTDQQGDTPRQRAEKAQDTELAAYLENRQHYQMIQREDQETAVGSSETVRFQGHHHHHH
Method: as §5
as §2, with “reactions.” for “reactions (5 mM total lipid).”, “5 nM” for “nM.”
as §3, with “follows: 50” for “follows: 25”, “mL enzyme/substrate” for “mL enzyme/lipid substrate”, “2× enzyme/substrate” for “2× enzyme/lipid substrate”, “for 1” for “for 2”
as §4, with “15.2” for “7-8”, “the 4×” for “the”, “eleven” for “10-12”, “Dynamic light scattering was carried out to confirm liposome size (50-60 nm radius).” left out
as §6, §7, §1
The DGKα and DGKζ reactions were performed using either extruded liposome (DGKα and DGKζ LIPGLO assays) or detergent/lipid micelle substrate (DGKα and DGKζ assays).

Row | SMILES | IC50 (Human whole blood pERK; Homo sapiens, CD8 positive) [nM] | EC50 (Human whole blood IFN-γ; 24 hours) [nM] | IC50 (DGKα [1]) [nM] | IC50 (Human whole blood pERK) [nM] | IC50 (DGKα [2]) [nM] | EC50 (Human whole blood IFN-γ; Homo sapiens, 24 h) [nM] | IC50 (DGKζ) [nM]
1 | CC(C)OC(=O)C(c1ccc(F)cc1)N1C[C@H](C)N(c2cc(=O)n(C)c3ccc(C#N)nc23)C[C@H]1C (single isomer, unassigned) [Example 2] | 80 | 60 |  |  |  |  | 
2 | CC[C@H]1CN(C(C(=O)NCCOC)c2ccc(C(F)(F)F)cc2)[C@H](CC)CN1c1nc(=O)n(C)c2ccc(C#N)nc12 (single isomer, unassigned) [Example 55] |  |  | 10 |  |  |  | 
3 | C#CCCC1(CCCOC(=O)C(c2ccc(OC)cc2)N2C[C@H](C)N(c3nc(=O)n(C)c4ccc(C#N)nc34)C[C@H]2C)N=N1 (single isomer, unassigned) [Example 60] |  |  | 180 |  |  |  | 
4 | C[C@@H]1CN(c2cc(=O)n(C)c3ccc(C#N)nc23)[C@@H](C)CN1C(C(=O)Nc1ccn(C)n1)c1ccc(F)cc1 (stereo partly drawn) [Example 15, 2-((2R,5S)-4-(6-cyano-1-methyl-2-oxo-1,2-dihydro-1,5-naphthyridin-4-yl)-2,5-dimethylpiperazin-1-yl)-2-(4-fluorophenyl)-N-(1-methyl-1H-pyrazol-3-yl)acetamide] |  |  |  | 20000 | 279000 | 20000 | 9840
5 | C[C@@H]1CN(c2cc(=O)n(C)c3ccc(C#N)nc23)[C@@H](C)CN1C(C(=O)Nc1ccn(C)n1)c1ccc(F)cc1 (stereo partly drawn) [Example 16, 2-((2R,5S)-4-(6-cyano-1-methyl-2-oxo-1,2-dihydro-1,5-naphthyridin-4-yl)-2,5-dimethylpiperazin-1-yl)-2-(4-fluorophenyl)-N-(1-methyl-1H-pyrazol-3-yl)acetamide] |  | 14400 |  | 5930 | 500 |  | 1340
6 | CNC(=O)C(c1ccc(F)cc1)N1C[C@H](C)N(c2cc(=O)n(C)c3ccc(C#N)nc23)C[C@H]1C (stereo partly drawn) [Example 26, 2-((2R,5S)-4-(6-cyano-1-methyl-2-oxo-1,2-dihydro-1,5-naphthyridin-4-yl)-2,5-dimethylpiperazin-1-yl)-2-(4-fluorophenyl)-N-methylacetamide] | 13100 | 20000 |  |  |  |  | 
7 | CC(C)N(C)C(=O)CC(c1ccc(F)cc1)N1C[C@H](C)N(c2cc(=O)n(C)c3ccc(C#N)nc23)C[C@H]1C (stereo partly drawn) [Example 41, 3-[(2R,5S)-4-(6-cyano-1-methyl-2-oxo-1,2-dihydro-1,5-naphthyridin-4-yl)-2,5-dimethylpiperazin-1-yl]-3-(4-fluorophenyl)-N-methyl-N-(propan-2-yl)propanamide] | 410 |  |  |  | 1140 | 1590 | 390
